In US20230085307A1, “PYRIDAZINONE COMPOUND AND HERBICIDE” (NISSAN CHEMICAL CORPORATION, priority 2019, published 2023):

What was measured:
[1] = system: late watergrass; test: Test Example 1: herbicidal activity, application before weed generation under submerged conditions (Table 16, symbol A); type: in vivo, late watergrass (Echinochloa oryzicola)
Procedure, shortened: (§1)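 Submerged Wagner pots (alluvial soil, 4 cm water) sown with weed seeds and planted with 2.5-leaf rice seedlings; emulsifiable concentrate diluted in water applied to water surface on sowing day. Held in greenhouse at 25-30 °C; injury scored 0-5 by herbicidal rate after three weeks.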

[2] = system: Japanese bulrush; test: Test Example 1: herbicidal activity, application before weed generation under submerged conditions (Table 16, symbol B); type: in vivo, Japanese bulrush (Schoenoplectus juncoides)
Procedure, shortened: as §1

[3] = system: oval-leafed pondweed; test: Test Example 1: herbicidal activity, application before weed generation under submerged conditions (Table 16, symbol C); type: in vivo, oval-leafed pondweed (Monochoria vaginalis)
Procedure, shortened: as §1

[4] = system: barnyard grass; test: Test Example 3: herbicidal effect by foliage application, Wagner pot (Table 18, symbol H); type: in vivo, barnyard grass (Echinochloa crus-galli)
Procedure, shortened: (§2)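 Plants were sown in alluvial soil held under 0.1–0.5 cm standing water and grown 14 days in a greenhouse at 25–30 °C. An emulsifiable formulation, water-diluted to the set dose, was then sprayed onto the foliage, and effects were scored three weeks later using previously defined criteria.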

[5] = system: Chinese sprangletop; test: Test Example 3: herbicidal effect by foliage application, Wagner pot (Table 18, symbol D); type: in vivo, chinese sprangletop (Leptochloa chinensis)
Procedure, shortened: as §2

[6] = system: rice flat sedge; test: Test Example 3: herbicidal effect by foliage application, Wagner pot (Table 18, symbol E); type: in vivo, rice flat sedge (Cyperus iria)
Procedure, shortened: as §2

[7] = system: southern crabgrass; test: Test Example 4: herbicidal effect by soil treatment (Table 19, symbol F); type: in vivo, southern crabgrass (Digitaria ciliaris); conditions: amount of applied herbicide 320 g/ha
Procedure, shortened: (§3)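 Three weeks of greenhouse growth at 25° C. to 30° C. followed a uniform surface spray of water-diluted emulsion at a predetermined herbicide amount. Seeds had been sown beforehand under about 1.5 cm of sterilized diluvial soil. Grading followed criteria set out in an earlier test.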

[8] = system: green foxtail; test: Test Example 4: herbicidal effect by soil treatment (Table 19, symbol G); type: in vivo, green foxtail (Setaria viridis); conditions: amount of applied herbicide 320 g/ha
Procedure, shortened: as §3

[9] = system: barnyard grass; test: Test Example 4: herbicidal effect by soil treatment (Table 19, symbol H); type: in vivo, barnyard grass (Echinochloa crus-galli); conditions: amount of applied herbicide 320 g/ha
Procedure, shortened: as §3

[10] = system: wild oat; test: Test Example 4: herbicidal effect by soil treatment (Table 19, symbol I); type: in vivo, wild oat (Avena fatua); conditions: amount of applied herbicide 320 g/ha
Procedure, shortened: as §3

[11] = system: blackgrass; test: Test Example 4: herbicidal effect by soil treatment (Table 19, symbol J); type: in vivo, blackgrass (Alopecurus myosuroides); conditions: amount of applied herbicide 320 g/ha
Procedure, shortened: as §3

[12] = system: Italian ryegrass; test: Test Example 4: herbicidal effect by soil treatment (Table 19, symbol K); type: in vivo, Italian ryegrass (Lolium multiflorum); conditions: amount of applied herbicide 320 g/ha
Procedure, shortened: as §3

[13] = system: windgrass; test: Test Example 4: herbicidal effect by soil treatment (Table 19, symbol L); type: in vivo, windgrass (Apera spica-venti); conditions: amount of applied herbicide 320 g/ha
Procedure, shortened: as §3

[14] = system: velvetleaf; test: Test Example 4: herbicidal effect by soil treatment (Table 19, symbol M); type: in vivo, velvetleaf (Abutilon theophrasti); conditions: amount of applied herbicide 320 g/ha
Procedure, shortened: as §3

[15] = system: redroot pigweed; test: Test Example 4: herbicidal effect by soil treatment (Table 19, symbol N); type: in vivo, redroot pigweed (Amaranthus retroflexus); conditions: amount of applied herbicide 320 g/ha
Procedure, shortened: as §3

[16] = system: lambsquarters; test: Test Example 4: herbicidal effect by soil treatment (Table 19, symbol O); type: in vivo, lambsquarters (Chenopodium album); conditions: amount of applied herbicide 320 g/ha
Procedure, shortened: as §3

[17] = system: chickweed; test: Test Example 4: herbicidal effect by soil treatment (Table 19, symbol P); type: in vivo, common chickweed (Stellaria media); conditions: amount of applied herbicide 320 g/ha
Procedure, shortened: as §3

[18] = system: persian speedwell; test: Test Example 4: herbicidal effect by soil treatment (Table 19, symbol R); type: in vivo, Persian speedwell (Veronica persica); conditions: amount of applied herbicide 320 g/ha
Procedure, shortened: as §3

[19] = system: southern crabgrass; test: Test Example 5: herbicidal effect by foliage application, plastic box (Table 20, symbol F); type: in vivo, southern crabgrass (Digitaria ciliaris); conditions: foliage application, 320 g/ha
Procedure, shortened: (§4)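 Plants sown in sterilized diluvial soil and grown 14 days in a greenhouse at 25° C to 30° C, then sprayed on the foliage with the compound's emulsion diluted in water to a predetermined herbicide amount. Injury to weeds and crops scored three weeks after application on a visual rating scale.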

[20] = system: green foxtail; test: Test Example 5: herbicidal effect by foliage application, plastic box (Table 20, symbol G); type: in vivo, green foxtail (Setaria viridis); conditions: foliage application, 320 g/ha
Procedure, shortened: as §4

[21] = system: barnyard grass; test: Test Example 5: herbicidal effect by foliage application, plastic box (Table 20, symbol H); type: in vivo, barnyard grass (Echinochloa crus-galli); conditions: foliage application, 320 g/ha
Procedure, shortened: as §4

[22] = system: wild oat; test: Test Example 5: herbicidal effect by foliage application, plastic box (Table 20, symbol I); type: in vivo, wild oat (Avena fatua); conditions: foliage application, 320 g/ha
Procedure, shortened: as §4

[23] = system: blackgrass; test: Test Example 5: herbicidal effect by foliage application, plastic box (Table 20, symbol J); type: in vivo, blackgrass (Alopecurus myosuroides); conditions: foliage application, 320 g/ha
Procedure, shortened: as §4

[24] = system: Italian ryegrass; test: Test Example 5: herbicidal effect by foliage application, plastic box (Table 20, symbol K); type: in vivo, Italian ryegrass (Lolium multiflorum); conditions: foliage application, 320 g/ha
Procedure, shortened: as §4

[25] = system: windgrass; test: Test Example 5: herbicidal effect by foliage application, plastic box (Table 20, symbol L); type: in vivo, windgrass (Apera spica-venti); conditions: foliage application, 320 g/ha
Procedure, shortened: as §4

[26] = system: velvetleaf; test: Test Example 5: herbicidal effect by foliage application, plastic box (Table 20, symbol M); type: in vivo, velvetleaf (Abutilon theophrasti); conditions: foliage application, 320 g/ha
Procedure, shortened: as §4

[27] = system: redroot pigweed; test: Test Example 5: herbicidal effect by foliage application, plastic box (Table 20, symbol N); type: in vivo, redroot pigweed (Amaranthus retroflexus); conditions: foliage application, 320 g/ha
Procedure, shortened: as §4

[28] = system: lambsquarters; test: Test Example 5: herbicidal effect by foliage application, plastic box (Table 20, symbol O); type: in vivo, lambsquarters (Chenopodium album); conditions: foliage application, 320 g/ha
Procedure, shortened: as §4

[29] = system: chickweed; test: Test Example 5: herbicidal effect by foliage application, plastic box (Table 20, symbol P); type: in vivo, common chickweed (Stellaria media); conditions: foliage application, 320 g/ha
Procedure, shortened: as §4

[30] = system: false cleavers; test: Test Example 5: herbicidal effect by foliage application, plastic box (Table 20, symbol Q); type: in vivo, false cleavers (Galium spurium); conditions: foliage application, 320 g/ha
Procedure, shortened: as §4

[31] = system: persian speedwell; test: Test Example 5: herbicidal effect by foliage application, plastic box (Table 20, symbol R); type: in vivo, Persian speedwell (Veronica persica); conditions: foliage application, 320 g/ha
Procedure, shortened: as §4

[32] = amount of applied herbicide 320 g/ha
[33] = evaluated three weeks after application

CCCC(=O)Oc1c(C)nn(C)c(=O)c1-c1c(-c2ccc(OC)c(F)c2)sc2ccc(Cl)cc12 [2-118]
Herbicidal effect on A: late watergrass (grade 0-5) ([1]; 320 g/ha applied herbicide): 4 (Herbicidal rate of 70% or more and less than 90%) | Herbicidal effect on B: Japanese bulrush (grade 0-5) ([2]; 320 g/ha applied herbicide): 3 (Herbicidal rate of 40% or more and less than 70%) | Herbicidal effect on C: oval-leafed pondweed (grade 0-5) ([3]; 320 g/ha applied herbicide): 0 (Herbicidal rate of 5% or less (almost no effect)) | herbicidal effect on H: barnyard grass [4, 32]: 2 (Herbicidal rate of 20% or more and less than 40%) | herbicidal effect on D: Chinese sprangletop [5, 32]: 0 (Herbicidal rate of 5% or less (almost no effect)) | herbicidal effect on E: rice flat sedge [6, 32]: 0 (Herbicidal rate of 5% or less (almost no effect)) | F: southern crabgrass, herbicidal effect rating [7]: 0 (Herbicidal rate of 5% or less (almost no effect)) | G: green foxtail, herbicidal effect rating [8]: 0 (Herbicidal rate of 5% or less (almost no effect)) | H: barnyard grass, herbicidal effect rating [9]: 0 (Herbicidal rate of 5% or less (almost no effect)) | I: wild oat, herbicidal effect rating [10]: 0 (Herbicidal rate of 5% or less (almost no effect)) | J: blackgrass, herbicidal effect rating [11]: 0 (Herbicidal rate of 5% or less (almost no effect)) | K: Italian ryegrass, herbicidal effect rating [12]: 0 (Herbicidal rate of 5% or less (almost no effect)) | L: windgrass, herbicidal effect rating [13]: 0 (Herbicidal rate of 5% or less (almost no effect)) | M: velvetleaf, herbicidal effect rating [14]: 1 (Herbicidal rate of 5% or more and less than 20%) | N: redroot pigweed, herbicidal effect rating [15]: 0 (Herbicidal rate of 5% or less (almost no effect)) | O: lambsquarters, herbicidal effect rating [16]: 2 (Herbicidal rate of 20% or more and less than 40%) | P: chickweed, herbicidal effect rating [17]: 4 (Herbicidal rate of 70% or more and less than 90%) | R: persian speedwell, herbicidal effect rating [18]: 5 (Herbicidal rate of 90% or more (almost completely withered)) | herbicidal effect on F: southern crabgrass [19, 33]: 0 (Herbicidal rate of 5% or less (almost no effect)) | herbicidal effect on G: green foxtail [20, 33]: 0 (Herbicidal rate of 5% or less (almost no effect)) | herbicidal effect on H: barnyard grass [21, 33]: 0 (Herbicidal rate of 5% or less (almost no effect)) | herbicidal effect on I: wild oat [22, 33]: 0 (Herbicidal rate of 5% or less (almost no effect)) | herbicidal effect on J: blackgrass [23, 33]: 0 (Herbicidal rate of 5% or less (almost no effect)) | herbicidal effect on K: Italian ryegrass [24, 33]: 0 (Herbicidal rate of 5% or less (almost no effect)) | herbicidal effect on L: windgrass [25, 33]: 0 (Herbicidal rate of 5% or less (almost no effect)) | herbicidal effect on M: velvetleaf [26, 33]: 3 (Herbicidal rate of 40% or more and less than 70%) | herbicidal effect on N: redroot pigweed [27, 33]: 0 (Herbicidal rate of 5% or less (almost no effect)) | herbicidal effect on O: lambsquarters [28, 33]: 1 (Herbicidal rate of 5% or more and less than 20%) | herbicidal effect on P: chickweed [29, 33]: 5 (Herbicidal rate of 90% or more (almost completely withered)) | herbicidal effect on Q: false cleavers [30, 33]: 1 (Herbicidal rate of 5% or more and less than 20%) | herbicidal effect on R: persian speedwell [31, 33]: 5 (Herbicidal rate of 90% or more (almost completely withered))

CCOc1ccccc1-c1sc2cc(OCc3ccccc3)ccc2c1-c1c(O)c(C)nn(C)c1=O [3-119]
Herbicidal effect, A: late watergrass [1, 32]: 3 (Herbicidal rate of 40% or more and less than 70%) | Herbicidal effect, B: Japanese bulrush [2, 32]: 3 (Herbicidal rate of 40% or more and less than 70%) | Herbicidal effect, C: oval-leafed pondweed [3, 32]: 3 (Herbicidal rate of 40% or more and less than 70%) | herbicidal effect on barnyard grass (H) ([4]; 320 g/ha): 4 (Herbicidal rate of 70% or more and less than 90%) | herbicidal effect on Chinese sprangletop (D) ([5]; 320 g/ha): 4 (Herbicidal rate of 70% or more and less than 90%) | herbicidal effect on rice flat sedge (E) ([6]; 320 g/ha): 5 (Herbicidal rate of 90% or more (almost completely withered)) | F: southern crabgrass, herbicidal effect grade [7]: 4 (Herbicidal rate of 70% or more and less than 90%) | G: green foxtail, herbicidal effect grade [8]: 3 (Herbicidal rate of 40% or more and less than 70%) | H: barnyard grass, herbicidal effect grade [9]: 0 (Herbicidal rate of 5% or less (almost no effect)) | I: wild oat, herbicidal effect grade [10]: 0 (Herbicidal rate of 5% or less (almost no effect)) | J: blackgrass, herbicidal effect grade [11]: 0 (Herbicidal rate of 5% or less (almost no effect)) | K: Italian ryegrass, herbicidal effect grade [12]: 0 (Herbicidal rate of 5% or less (almost no effect)) | L: windgrass, herbicidal effect grade [13]: 0 (Herbicidal rate of 5% or less (almost no effect)) | M: velvetleaf, herbicidal effect grade [14]: 0 (Herbicidal rate of 5% or less (almost no effect)) | N: redroot pigweed, herbicidal effect grade [15]: 3 (Herbicidal rate of 40% or more and less than 70%) | O: lambsquarters, herbicidal effect grade [16]: 3 (Herbicidal rate of 40% or more and less than 70%) | P: chickweed, herbicidal effect grade [17]: 0 (Herbicidal rate of 5% or less (almost no effect)) | R: persian speedwell, herbicidal effect grade [18]: 5 (Herbicidal rate of 90% or more (almost completely withered)) | F: southern crabgrass, herbicidal effect grade ([19]; three weeks after application): 5 (Herbicidal rate of 90% or more (almost completely withered)) | G: green foxtail, herbicidal effect grade ([20]; three weeks after application): 5 (Herbicidal rate of 90% or more (almost completely withered)) | H: barnyard grass, herbicidal effect grade ([21]; three weeks after application): 3 (Herbicidal rate of 40% or more and less than 70%) | I: wild oat, herbicidal effect grade ([22]; three weeks after application): 1 (Herbicidal rate of 5% or more and less than 20%) | J: blackgrass, herbicidal effect grade ([23]; three weeks after application): 0 (Herbicidal rate of 5% or less (almost no effect)) | K: Italian ryegrass, herbicidal effect grade ([24]; three weeks after application): 1 (Herbicidal rate of 5% or more and less than 20%) | L: windgrass, herbicidal effect grade ([25]; three weeks after application): 4 (Herbicidal rate of 70% or more and less than 90%) | M: velvetleaf, herbicidal effect grade ([26]; three weeks after application): 4 (Herbicidal rate of 70% or more and less than 90%) | N: redroot pigweed, herbicidal effect grade ([27]; three weeks after application): 5 (Herbicidal rate of 90% or more (almost completely withered)) | O: lambsquarters, herbicidal effect grade ([28]; three weeks after application): 5 (Herbicidal rate of 90% or more (almost completely withered)) | P: chickweed, herbicidal effect grade ([29]; three weeks after application): 5 (Herbicidal rate of 90% or more (almost completely withered)) | Q: false cleavers, herbicidal effect grade ([30]; three weeks after application): 5 (Herbicidal rate of 90% or more (almost completely withered)) | R: persian speedwell, herbicidal effect grade ([31]; three weeks after application): 5 (Herbicidal rate of 90% or more (almost completely withered))
